{"source": "paper PMC12814185", "about": "“Receptor-Mediated Shuttling of a D‑Amino Acid Peptide Achieves High Nanomolar Cytosolic Concentrations” (Journal of the American Chemical Society, 2025)", "key": {"THP-1 cells": {"test_system": "THP-1 cells", "assay": "Fluorescence correlation spectroscopy (FCS) in the cytosol", "details": "THP-1, applied concentration 1000 nM, 72 h; for cytosolic concentration, mean ± SD: FCS at 22 °C", "procedure": "3 Quantification of Cy5-labeled peptides in the cytosol. (A) RP-HPLC (λex = 640 nm, λem = 670 nm) of cleavage products of Cy5-labeled peptides in the lysate of HEK293_CMKLR1-eYFP cells after incubation with 1 μM peptide for different durations. […] (B) Representative fluorescence correlation spectroscopy (FCS) autocorrelation curves of Cy5-labeled peptides measured in the cytosol of HEK293_CMKLR1-eYFP cells after 72 h of incubation. Measured curves were fitted with a model for hindered 3D diffusion and diffusion time t D and anomalous coefficient α were calculated from the fit. Autocorrelation data represent mean ± SD of up to 10 consecutive 5 s measurements in a single cell. (C) Intracellular concentrations of Cy5-labeled peptides after 72 h incubation calculated from the fitted autocorrelation curves obtained in HEK293_CMKLR1-eYFP, HMEC-1, and THP-1 cells. Each data point corresponds to FCS measurements from the cytosol of a single cell. Median with the interquartile range is shown. Data from three independent experiments. Statistical comparison by log-normal unpaired t test. ***p ≤ 0.001, **p ≤ 0.01, *p ≤ 0.05, ns – not significant. […] (D) Calculated diffusion coefficients from the fitted autocorrelation curves. Median with the interquartile range is shown. […]\nFluorescence correlation spectroscopy (FCS)\nCytosolic delivery was quantified by FCS as has been described previously.3–5 Stably transfected HEK293_CMKLR1-eYFP cells were seeded at 30,000 cells per well and HMEC-1 cells at 10,000 cells per well into poly-ᴅ-lysine-coated 8-well microscopy slides (ibidi) in their respective cell culture medium. THP-1 cells were resuspended in fresh cell culture medium at 100,000 cells/mL in 500 µL cell culture medium in uncoated 12-well plates. The next day, dilutions of Cy5-labeled peptides were added to the cells and incubated for 72 h. Cell membranes of HMEC-1 and THP-1 cells were stained with 20 µg/mL Alexa Fluor 488-labeled concanavalin A (Invitrogen) for 20 min to enable identification of the cytosol. Nuclei were counterstained with Hoechst33342, and cells were washed with FluoroBriteTM DMEM (Gibco) + 25 mM HEPES (pH 7.4). After washing, THP-1 cells were transferred to poly-ᴅ-lysine-coated 8-well microscopy slides and allowed to sediment and adhere for 1 h. Confocal imaging and FCS were performed at 22 °C on a TCS SP8 FALCON microscope (Leica) with a Plan-Apochromat 40x/1,10 water immersion objective and HyD single molecule detector (Leica). The 638 nm laser line was used for excitation at 0.5% power and […]"}, "[1]": {"target": "T1, NanoLuc-MDM2 in HEK293_CMKLR1-eYFP cells (Homo sapiens, UniProt Q00987)", "T1 construct": "host or cells: HEK293 and HEK293_CMKLR1-eYFP", "T1 sequence (Q00987 whole entry)": "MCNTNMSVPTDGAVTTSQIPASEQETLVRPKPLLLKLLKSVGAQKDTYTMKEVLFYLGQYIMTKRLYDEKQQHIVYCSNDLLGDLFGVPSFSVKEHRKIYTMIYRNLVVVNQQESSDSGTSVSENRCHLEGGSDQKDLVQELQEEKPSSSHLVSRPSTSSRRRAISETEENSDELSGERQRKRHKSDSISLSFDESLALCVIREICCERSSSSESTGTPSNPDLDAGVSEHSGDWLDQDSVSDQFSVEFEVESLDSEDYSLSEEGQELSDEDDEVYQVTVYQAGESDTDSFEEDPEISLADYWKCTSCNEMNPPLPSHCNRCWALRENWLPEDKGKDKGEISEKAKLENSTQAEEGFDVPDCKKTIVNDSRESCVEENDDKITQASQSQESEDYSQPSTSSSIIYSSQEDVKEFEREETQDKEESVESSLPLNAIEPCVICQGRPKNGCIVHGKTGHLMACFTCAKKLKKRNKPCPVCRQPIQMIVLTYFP", "assay": "Intracellular Cy5-PMIγ/NanoLuc-MDM2 BRET, cells with CMKLR1", "assay_type": "cell-based", "details": "for displacement from MDM2 by 10 μM nutlin-3a (kinetic BRET): 72 h internalization; for BRET between NanoLuc-MDM2 and Cy5-labeled peptide: CMKLR1-expressing cells, 1 or 10 μM; for receptor-specific BRET under uptake competition: coincubation with 30 μM unlabeled peptide 1", "procedure": "4 Intracellular bioluminescence resonance energy transfer (BRET) between NanoLuc-MDM2 and Cy5-labeled PMIγ in living cells. (A) Peptides were incubated on HEK293 and HEK293_CMKLR1-eYFP cells for 72 h before BRET was measured. To evaluate the receptor-specific effect, ΔBRET was calculated by subtracting netBRET of cells without CMKLR from netBRET from cells with CMKLR1. Mean ± SEM from three independent experiments performed in duplicate. […] (B) Calculated ΔBRET values after different incubation times of peptides on the cells. (C, D) Same as panels (A) and (B), but peptide uptake was competed by coincubation with 30 μM peptide 1 (N3-cC9). (E, F) Displacement of PMIγ peptides from MDM2 after 72 h internalization in a kinetic BRET measurement. After 3 min, 10 μM of the small molecule MDM2 antagonist Nutlin-3a was added and the loss of NanoLuc-MDM2/Cy5-PMIγ BRET was observed. Mean (bold line) ± SEM (dotted lines) from three independent experiments is shown. […]\nIntracellular Cy5-PMIγ/NanoLuc-MDM2 bioluminescence resonance energy transfer […]\nHEK293 and stably transfected HEK293_CMKLR1-eYFP cells were seeded at 15,000 cells per well into poly-ᴅ-lysine coated 96-well plates (white Nunc MicroWell, Thermo). The next day, cells in each well were transfected with 0.1 µg Transfection Carrier DNA (Promega) and 0.001 µg NanoLuc-MDM2 fusion vector (Promega) using Lipofectamine 3000 (Invitrogen) according to manufactures instructions. Cells were incubated overnight, washed, allowed to recover for 4 h, washed again and dilutions of the Cy5-labeled peptides were added to the cells and incubated for 24,48 or 72 h. For uptake competition experiments, 30 µM of the unlabeled peptide 1 (N3-cC9) were additionally added to each well. After the incubation, excess peptide was washed away thoroughly, and cells were incubated for 4 h before the cell culture medium was replaced by 50 µl Fluorobrite DMEM with Nano-Glo Live Cell Reagent (Promega). After 10 min incubation, luminescence was measured in a Spark multimode plate reader (Tecan), and BRET ratio was calculated by […]\ndividing the Cy5-signal (670±30 nm) by the NanoLuc signal (450±20 nm). netBRET was calculated by subtracting the BRET ratio from cells which were incubated without peptide. To calculate the CMKLR1-specific effect, ΔBRET was calculated by subtracting the netBRET value obtained in cells without CMKLR1 from netBRET obtained in cells with CMKLR1. After the initial readout, a kinetic BRET displacement was performed with the same cells. For this, luminescence was measured every 22 s. After 3 min, 10 µM of the small molecule MDM2 antagonist Nutlin-3a (Sigma) was added to the cells and BRET was measured for another 7 min. Experiments were performed in technical duplicates and three independent times. Non-linear regression and statistical analysis were performed using Prism 10 (GraphPad).\nAnalogous to the intracellular Cy5-PMIγ/NanoLuc-MDM2 BRET experiment, HEK293 and HEK293_CMKLR1-eYFP cells were seeded and transfected with 0.09 µg Transfection Carrier DNA, 0.01 µg […]\nwere then incubated with dilutions of unlabeled PMIγ -peptides for 72 h or with Nutlin-3a for 24 h. During the last 30 min of the incubation, HaloTag TMR Ligand (Promega) was added to the cells to fluorescently label the p53-HaloTag fusion proteins in the cells. Cells were then washed thoroughly, incubated for 4 h in full cell culture medium without peptides, and the cell culture medium was then replaced by 50 µl Fluorobrite DMEM with Nano-Glo Live Cell Reagent. After 10 min incubation, luminescence was measured, and BRET ratio was calculated by dividing the TMR-signal (600±50 nm) by the NanoLuc signal (450±20 nm). netBRET was calculated and normalized to cells without peptide (100%) and cells which were not label ed with HaloTag TMR Ligand (0%). Experiments were performed in technical duplicates and at least twice. Non-linear regression and statistical analysis were performed using Prism 10 (GraphPad)."}}, "note": "Where a SMILES comes first, the peptide text is derived from it. Bridges are numbered along the chain shown (N, C = ends). Roman numbers before positions name the chains, in order. Triazole bridges read from a SMILES are 1,4-linked. Where no end group is shown, it is not given here. Side-chain parts run from the residue outwards. [ ]: non-standard residue; d: D form. The star is where a group is joined. X2 = CN1C(=C/C=C/C=C/C2=[N+](CCCCCC(=O)*)c3ccc(S(=O)(=O)[O-])cc3C2(C)C)C(C)(C)c2cc(S(=O)(=O)O)ccc21; X1 = CN1C(=CC=CC=CC2=[N+](CCCCCC(=O)*)c3ccc(S(=O)(=O)[O-])cc3C2(C)C)C(C)(C)c2cc(S(=O)(=O)O)ccc21; Lys(N3) = [N-]=[N+]=NCCCC[C@H](N)C(=O)O; Cit = NC(=O)NCCC[C@H](N)C(=O)O; d(hCys) = N[C@H](CCS)C(=O)O; PEG3 = NCCOCCOCCOCCC(=O)O; Pra = C#CC[C@H](N)C(=O)O"}
{"compound": "CC(=O)N[C@@H](CCCCn1cc(C[C@H](NC(=O)CCOCCOCCOCCNC(=O)[C@H](CCCNC(N)=O)NC(=O)[C@@H](NC(=O)[C@H](CCC(=O)O)NC(=O)CNC(=O)CNC(=O)[C@@H](CCCNC(=N)N)NC(=O)[C@@H](CC(C)C)NC(=O)[C@@H](CC(C)C)NC(=O)[C@@H](C)NC(=O)[C@@H](CCC(=O)O)NC(=O)[C@@H](Cc2ccccc2)NC(=O)[C@@H](C)NC(=O)[C@@H](CC(C)C)NC(=O)[C@H]2CCCN2C(=O)[C@@H](Cc2c[nH]c3ccccc23)NC(=O)[C@@H](Cc2c[nH]c3ccccc23)NC(=O)[C@@H](CC(=O)O)NC(=O)CCOCCOCCOCCNC(=O)CCCCC[N+]2=C(/C=C/C=C/C=C3N(C)c4ccc(S(=O)(=O)O)cc4C3(C)C)C(C)(C)c3cc(S(=O)(=O)[O-])ccc32)C(C)C)C(N)=O)nn1)C(=O)N[C@@H](Cc1ccc(O)cc1)C(=O)N[C@@H](Cc1ccccc1)C(=O)N1CCC[C@H]1C(=O)N[C@@H]1CCSSC[C@@H](C(=O)O)NC(=O)[C@H](Cc2ccccc2)NC(=O)[C@H](C)NC(=O)[C@H](Cc2ccccc2)NC(=O)[C@H](CCC(N)=O)NC1=O", "note": "[2Cy] (I: {X2-PEG3}-[dD][dW][dW][dP][dL][dA][dF][dE][dA][dL][dL][dR]GGEV[Cit][PEG3][Pra]-NH2 / II: Ac-[Lys(N3)]YFP[d(hCys)]QFAFC-OH; triazole I:19-II:1; disulfide II:5-II:10)", "values": [{"measurement": "cytosolic concentration, median (IQR)", "setting": "THP-1 cells", "result": "14.0 (7.1–26.6) nM"}, {"measurement": "cytosolic concentration, mean ± SD", "setting": "THP-1 cells", "result": "22.7 ± 25.1", "unit": "nM"}, {"measurement": "displacement from MDM2 by 10 μM nutlin-3a (kinetic BRET)", "setting": "[1]; 1 μM extracellular peptide", "result": "seen only in CMKLR1-expressing cells"}, {"measurement": "BRET between NanoLuc-MDM2 and Cy5-labeled peptide", "setting": "[1]; 72 h", "result": "significantly elevated BRET"}, {"measurement": "receptor-specific BRET under uptake competition", "setting": "[1]", "result": "almost no receptor-specific BRET was detected"}]}
{"compound": "I: GSVSHHHHHHGGHHHH[PEG3][dK]([PEG3-X1])[dD][dW][dW][dP][dL][dA][dF][dE][dA][dL][dL][dR]GEV[Cit][PEG3][Pra]-NH2 / II: Ac-[Lys(N3)]YFP[d(hCys)]QFAFC-OH (triazole I:36-II:1; disulfide II:5-II:10) [3Cy]", "values": [{"measurement": "cytosolic concentration, median (IQR)", "setting": "THP-1 cells", "result": "22.6 (12.7–38.5) nM"}, {"measurement": "cytosolic concentration, mean ± SD", "setting": "THP-1 cells", "result": "40.3 ± 77.12", "unit": "nM"}, {"measurement": "loss of BRET after 10 μM nutlin-3a, compared with 2Cy", "setting": "[1]; 1 μM extracellular peptide, 72 h", "result": "larger loss of BRET"}, {"measurement": "displacement from MDM2 by 10 μM nutlin-3a (kinetic BRET)", "setting": "[1]; 1 μM extracellular peptide", "result": "seen only in CMKLR1-expressing cells"}, {"measurement": "ΔBRET (netBRET with CMKLR1 minus without)", "setting": "[1]; 24, 48 and 72 h", "result": "slightly higher signal compared to 2Cy"}, {"measurement": "BRET between NanoLuc-MDM2 and Cy5-labeled peptide", "setting": "[1]; 72 h", "result": "significantly elevated BRET"}, {"measurement": "receptor-specific BRET under uptake competition", "setting": "[1]", "result": "almost no receptor-specific BRET was detected"}]}
